{
  "source": "patent US7250402B2",
  "about": "“Avermectin derivatives” (The Kitasato Institute, priority 2000, dated 2007)",
  "key": {"Caenorhabditis elegans": {"system": "Caenorhabditis elegans", "assay": "Antiparasitic activity against Caenorhabditis elegans in 96 well microplate (movement graded 0-3, MIC)", "type": "in vivo", "conditions": "concentration required to give Indication 2 (or 3) for caenorhabditis elegans; 20° C., observed after 24 and 48 hours", "text": "(§1) Methods for determining antiparasitic effects of the compounds disclosed according to the present invention are explained below.\n(§2) As model insects for simple determination of antiparasitic and insecticidal activities, those insects are desired which can be easily obtained and bred in laboratories, and have no pathogenicity to a human. Caenorhabditis elegans, an unparasitic eelworm widely used in experiments of genetics, was used as a typical steam worm, and artemia salina used as feed for tropical fish and named Brine shrimp, was used instead of insects.\nPreparation of Caenorhabditis elegans Used for Evaluation\nEscherichia coli for the feed of caenorhabditis elegans (mutant having uracil requirement) was inoculated in a seed medium for E. coli to which a small amount of uracil was added, and cultured with shaking at 27° C. for 1 day. A petri dish of 6 cm diameter was filled with 10 mL of an agar medium for eelworm proliferation, and the medium was solidified. Then 0.5 mL of the culture of E. coli was spread over the medium in the dish, and the dish was incubated at 37° C. to proliferate E. coli. A piece of the agar was collected with a platinum loop from a petri dish in which caenorhabditis elegans successfully proliferated, and inoculated in petri dishes in which E. coli was proliferated. The petri dishes were incubated at 20° C. to proliferate caenorhabditis elegans. Since the life of eelworm is about 2 weeks, subculture was carried out every once a week. The eelworms grown with spread on the surface of the petri dish after 3 to 5 days from subculture were used for the experiments.\n<Preparation of Agar Medium for Eelworm Proliferation>\nSolution A was obtained by dissolving 0.3% of sodium chloride, 1.7% of bact-agar (DIFCO Co.), 0.5% of bact-peptone (DIFCO Co.) and 1.0% of yeast extract (DIFCO Co.) in distilled water.\nSolution B was obtained by dissolving 0.5% of cholesterol in ethanol.\nSolution C was obtained by dissolving 13.9% of calcium chloride in distilled water.\nSolution D was obtained by dissolving 30.8% of magnesium sulfate heptahydrate in distilled water.\nSolution E was obtained by dissolving 13.54% of KH2PO4 and 4.45% of K2HPO4 in distilled water.\nThe aforementioned Solutions A, C and D were sterilized in an autoclave at 121° C. for 20 minutes, and each solution was stored at 4° C.\nThe agar medium for eelworm proliferation was prepared by mixing the solutions in the following proportion: Solution A: 100 mL, Solution B: 0.1 mL, Solution C: 0.05 mL, Solution D: 0.1 mL and Solution E: 2.5 mL (without pH adjustment), and dispensing each 10 mL portion into petri dishes of 60×15 mm.\n<Preparation of E. coli Seed Medium>\nIn distilled water, 2.0% of bact-trypton (DIFCO Co.), 0.55% of sodium chloride and 0.001% of uracil (SIGMA Co., pH 7.4) were dissolved, and the solution was sterilized in an autoclave at 121° C. for 20 minutes.\n(§3) Each well of a 96 well microplate was filled with the solution of the test compound (methanol as a solvent), and the solvent was removed using a vacuum pump, then 250 μl of the assay medium was added to each wells (the assay medium was prepared by dissolving 7.5 mM sodium hydrogencarbonate, 7.5 mM potassium chloride, 7.5 mM calcium chloride dihydrate and 7.5 mM magnesium sulfate heptahydrate in distilled water and adding 0.01% of lecithin to the solution), and then the microplate was shaken using a microplate mixer for 15 minutes. To each well, a few individuals of caenorhabditis elegans were added by softly rubbing the surface of the agar using a toothpick, or a few individuals of artemia salina were added together with 50 μl of the buffer. The microplate was incubated at 20° C., and then the insects were observed after 24 and 48 hours under a microscope (magnification of 40×). The results were compared to those obtained without addition of the test compound, and evaluated by 4 grades.\n(§4) The evaluation results were shown by indications of 4 grades from 0 to 3.\n1: A little week movements […]"}, "artemia salina": {"system": "artemia salina", "assay": "Insecticidal model activity against artemia salina (Brine shrimp) in 96 well microplate (movement graded 0-3, MIC)", "type": "in vivo", "conditions": "concentration required to give Indication 2 (or 3) for artemia salina; 20° C., observed after 24 and 48 hours", "text": "as §1, §2\n<Preparation of Artemia salina Used for Evaluation>\nTo a buffer for artemia salina (obtained by dissolving 0.24% of Tris, 2.57% of sodium chloride, 0.47% of magnesium chloride, 0.07% of potassium chloride, 0.02% of sodium carbonate, 0.64% of magnesium sulfate and 0.11% of calcium chloride in distilled water and adjusting the pH to 7.1 with hydrochloric acid), dried eggs of artemia salina [Tetra Brine Shrimp Eggs, Warner Lambert Co.] were added. The noprius larvae 1 or 2 days after hatching were used for the experiments.\nas §3, §4\n1: A little week movements\nOf the 4 grades, Indications 3 and 2 were judged as effective, and Indications 1 and 0 as ineffective. In Table 7, the values for each compound are minimum inhibitory concentrations (MIC) which were required to give Indication 2 (or 3) for caenorhabditis elegans or artemia salina. In Table 7, caenorhabditis elegans and artemia salina are abbreviated as C.E. and A.S., respectively."}},
  "data": [
    {"compound": "CC[C@H](C)[C@H]1O[C@]2(C=C[C@@H]1C)C[C@@H]1C[C@@H](C/C=C(\\C)[C@@H](O[C@H]3C[C@H](OC)[C@@H](O)[C@H](C)O3)[C@@H](C)/C=C/C=C3\\CO[C@@H]4[C@H](O)C(C)=C[C@@H](C(=O)O1)[C@]34O)O2", "note": "[Avermectin B1a monosaccharide, avermectin B1a monosaccharide]", "values": [
      {"measurement": "C.E. minimum inhibitory concentrations (MIC)", "setting": "Caenorhabditis elegans", "result": 2, "unit": "ng/mL"},
      {"measurement": "A.S. minimum inhibitory concentrations (MIC)", "setting": "artemia salina", "result": 2, "unit": "ng/mL"}
    ]},
    {"compound": "CCC(C)C1O[C@]2(C=C[C@@H]1C)C[C@@H]1CC(C/C=C(\\C)[C@@H](OC3C[C@H](OC)[C@@H](OC4C[C@H](OC)[C@@H](O)[C@H](C)O4)[C@H](C)O3)[C@@H](C)/C=C/C=C3\\COC4[C@H](O)C(C)=CC(C(=O)O1)[C@]34O)O2", "note": "(stereo partly drawn) [Avermectin B1a]", "values": [
      {"measurement": "C.E. minimum inhibitory concentrations (MIC)", "setting": "Caenorhabditis elegans", "result": 2, "unit": "ng/mL"},
      {"measurement": "A.S. minimum inhibitory concentrations (MIC)", "setting": "artemia salina", "result": 0.5, "unit": "ng/mL"}
    ]},
    {"compound": "CCC(C)C1OC2(C=C[C@@H]1C)CC1CC(C/C=C(\\C)C(O[C@H]3CC(OC)C(=CC(=O)O)C(C)O3)[C@@H](C)/C=C/C=C3\\COC4C(O)C(C)=CC(C(=O)O1)[C@]34O)O2", "note": "(stereo partly drawn) [Compound 6]", "values": [
      {"measurement": "C.E. minimum inhibitory concentrations (MIC)", "setting": "Caenorhabditis elegans", "result": 2, "unit": "ng/mL"},
      {"measurement": "A.S. minimum inhibitory concentrations (MIC)", "setting": "artemia salina", "result": 2, "unit": "ng/mL"}
    ]},
    {"compound": "CCC(C)C1OC2(CC[C@@H]1C)CC1CC(C/C=C(\\C)C(O[C@H]3CC(OC)C(=CC#N)C(C)O3)[C@@H](C)/C=C/C=C3\\COC4C(O)C(C)=CC(C(=O)O1)[C@]34O)O2", "note": "(stereo partly drawn) [Compound 22]", "values": [
      {"measurement": "C.E. minimum inhibitory concentrations (MIC)", "setting": "Caenorhabditis elegans", "result": 2, "unit": "ng/mL"},
      {"measurement": "A.S. minimum inhibitory concentrations (MIC)", "setting": "artemia salina", "result": 2, "unit": "ng/mL"}
    ]},
    {"compound": "CCC(C)C1OC2(CCC1C)CC1CC(CC=C(C)C(OC3CC(OC)C(O)C(C)O3)C(C)C=CC=C3COC4C(O)C(C)=CC(C(=O)O1)C34O)O2", "note": "(stereo not drawn) [Ivermectin monosaccharide, 22,23-dihydroavermectin B1a monosaccharide]", "values": [
      {"measurement": "C.E. minimum inhibitory concentrations (MIC)", "setting": "Caenorhabditis elegans", "result": 2, "unit": "ng/mL"},
      {"measurement": "A.S. minimum inhibitory concentrations (MIC)", "setting": "artemia salina", "result": 2, "unit": "ng/mL"}
    ]},
    {"compound": "Ivermectin", "values": [
      {"measurement": "C.E. minimum inhibitory concentrations (MIC)", "setting": "Caenorhabditis elegans", "result": 2, "unit": "ng/mL"},
      {"measurement": "A.S. minimum inhibitory concentrations (MIC)", "setting": "artemia salina", "result": 2, "unit": "ng/mL"}
    ]}
  ]
}
